Measurements as given in ChEMBL document CHEMBL1201862, “PubChem BioAssay data set” (2004).
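All cell lines were grown in 96-well plates and treated with compound for 48 hours. GI50 = concentration required for 50% inhibition of growth.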 Activity calls are given as the source filed them. Rule as the data show it: active = GI50 up to about 1.1 µM and inactive = higher.

Columns and labels:
Test in all cases: growth of human tumour cells (NCI), 48 h
[1] = tested on: HL-60
[2] = tested on: MDA-N
[3] = tested on: IGROV-1
[4] = tested on: SW-620
[5] = tested on: NCI-H522
[6] = tested on: COLO 205
[7] = tested on: SNB-75
[8] = tested on: MDA-MB-231
[9] = tested on: K562
[10] = tested on: SF-295
[11] = tested on: SF-268
[12] = tested on: PC-3
[13] = tested on: CAKI-1
[14] = tested on: MCF7
[15] = tested on: T47D
[16] = tested on: SR
[17] = tested on: UO-31
[18] = tested on: BT-549
[19] = tested on: SNB-19
[20] = tested on: U-251

Structure (SMILES)	GI50 [1]	GI50 [2]	GI50 [3]	GI50 [4]	GI50 [5]	GI50 [6]	GI50 [7]	GI50 [8]	GI50 [9]	GI50 [10]	GI50 [11]	GI50 [12]	GI50 [13]	GI50 [14]	GI50 [15]	GI50 [16]	GI50 [17]	GI50 [18]	GI50 [19]	GI50 [20]
O=c1oc2ccccc2cc1-c1nc2ccc([N+](=O)[O-])cc2o1	> 100 µM (inactive)	> 100 µM (inactive)	> 100 µM (inactive)	> 100 µM (inactive)	> 100 µM (inactive)	> 100 µM (inactive)	> 100 µM (inactive)	> 100 µM (inactive)	> 100 µM (inactive)	83.4 µM (inactive)	> 100 µM (inactive)	> 100 µM (inactive)	> 100 µM (inactive)	83.8 µM (inactive)	> 100 µM (inactive)	> 100 µM (inactive)	> 100 µM (inactive)	> 100 µM (inactive)	30.2 µM (inactive)	> 100 µM (inactive)
N#Cc1c(O)c(/C=N/c2ncccn2)c(=O)n2c1[nH]c1ccccc12	> 100 µM (inactive)	> 100 µM (inactive)	> 100 µM (inactive)	> 100 µM (inactive)	> 100 µM (inactive)	> 100 µM (inactive)	44.1 µM (inactive)	> 100 µM (inactive)	> 100 µM (inactive)	> 100 µM (inactive)	> 100 µM (inactive)	> 100 µM (inactive)	> 100 µM (inactive)	88.9 µM (inactive)	> 100 µM (inactive)	> 100 µM (inactive)	> 100 µM (inactive)	> 100 µM (inactive)	> 100 µM (inactive)	> 100 µM (inactive)
CC1(C)O[C@H]2OC3CCC(=O)CC3(O)[C@H]2O1 (stereo not given in full)	> 100 µM (inactive)	> 100 µM (inactive)	> 100 µM (inactive)	> 100 µM (inactive)	> 100 µM (inactive)	> 100 µM (inactive)	> 100 µM (inactive)	> 100 µM (inactive)	> 100 µM (inactive)	> 100 µM (inactive)	> 100 µM (inactive)	> 100 µM (inactive)	> 100 µM (inactive)	> 100 µM (inactive)	> 100 µM (inactive)	> 100 µM (inactive)	> 100 µM (inactive)	> 100 µM (inactive)	> 100 µM (inactive)	> 100 µM (inactive)
Clc1ccccc1-c1nc(-c2ccncc2)no1 [PIFEXOLE]	13.4 µM (inactive)	49.3 µM (inactive)	71.3 µM (inactive)	52.7 µM (inactive)	25.8 µM (inactive)	40.8 µM (inactive)	89.3 µM (inactive)	94.4 µM (inactive)	26.6 µM (inactive)	36.5 µM (inactive)	59.6 µM (inactive)	78 µM (inactive)	57.3 µM (inactive)	30 µM (inactive)	29.2 µM (inactive)	18.5 µM (inactive)	47.4 µM (inactive)	42.3 µM (inactive)	96.2 µM (inactive)	65.8 µM (inactive)
O=C(NNC(=O)c1ccccc1O)c1ccco1	28.9 µM (inactive)	> 100 µM (inactive)	64.9 µM (inactive)	67.8 µM (inactive)	57.3 µM (inactive)	83 µM (inactive)	38.6 µM (inactive)	60.5 µM (inactive)	> 100 µM (inactive)	> 100 µM (inactive)	> 100 µM (inactive)	> 100 µM (inactive)	> 100 µM (inactive)	> 100 µM (inactive)	> 100 µM (inactive)	66.7 µM (inactive)	> 100 µM (inactive)	> 100 µM (inactive)	> 100 µM (inactive)	> 100 µM (inactive)
CC(=O)Oc1ccc(/C=C/C(=O)OCCCOC(=O)/C=C/c2ccc(OC(C)=O)c(OC(C)=O)c2)cc1OC(C)=O	< 0.01 µM (active)	> 100 µM (inactive)	> 100 µM (inactive)	> 100 µM (inactive)	> 100 µM (inactive)	> 100 µM (inactive)	> 100 µM (inactive)	> 100 µM (inactive)	> 100 µM (inactive)	77.4 µM (inactive)	> 100 µM (inactive)	> 100 µM (inactive)	> 100 µM (inactive)	> 100 µM (inactive)	> 100 µM (inactive)	> 100 µM (inactive)	> 100 µM (inactive)	> 100 µM (inactive)	> 100 µM (inactive)	> 100 µM (inactive)
O=C1c2ccccc2C(=O)c2c1oc(=O)c1ccccc21	0.664 µM (active)	2.2 µM (inactive)	3.73 µM (inactive)	2.08 µM (inactive)	4.07 µM (inactive)	9.71 µM (inactive)	5.24 µM (inactive)	3.74 µM (inactive)	4 µM (inactive)	3.83 µM (inactive)	4.34 µM (inactive)	5.37 µM (inactive)	6.21 µM (inactive)	2.21 µM (inactive)	5.47 µM (inactive)	3.75 µM (inactive)	5.22 µM (inactive)	4.51 µM (inactive)	8.75 µM (inactive)	2.96 µM (inactive)
